# ChEMBL document CHEMBL4251742, “Modulating ADME Properties by Fluorination: MK2 Inhibitors with Improved Oral Exposure” (ACS Med Chem Lett, 2018)
# Experiments:
# [1] = Clearance in Sprague-Dawley rat at 1 mg/kg, iv administered as single cassette dose by LC-MS/MS analysis; assay type: ADME, organism-based; conditions: in vivo
# [2] = Aqueous solubility of the compound; assay type: physicochemical; conditions: buffer
# [3] = Lipophilicity, log D of compound at pH 7.4; conditions: buffer
# Blood = test: tissue or blood; conditions: Homo sapiens
# Rattus norvegicus [4] = test: Dose normalized AUC in Sprague-Dawley rat at 3 mg/kg, po administered as single cassette dose by LC-MS/MS analysis; assay type: ADME, organism-based; conditions: in vivo
# [5] = (§1) Oral bioavailability in Sprague-Dawley rat at 3 mg/kg administered as single cassette dose by LC-MS/MS analysis; assay type: ADME, organism-based; conditions: Sprague-Dawley, in vivo
# [6] = Permeability of the compound by PAMPA; assay type: ADME
# Rattus norvegicus [7] = test: as §1; assay type: ADME, organism-based; conditions: in vivo
# PBMC = test: cells; conditions: Homo sapiens
# Rattus norvegicus [8] = test: Dose normalized AUC in Sprague-Dawley rat at 3 mg/kg, po administered as single cassette dose measured over 8 hrs by LC-MS/MS analysis; assay type: ADME, organism-based; conditions: in vivo
# [9] = Oral bioavailability in Sprague-Dawley rat at 3 mg/kg administered as single cassette dose measured over 8 hrs by LC-MS/MS analysis; assay type: ADME, organism-based; conditions: in vivo
# [10] = Clearance in Sprague-Dawley rat at 1 mg/kg, iv administered as single cassette dose measured over 8 hrs by LC-MS/MS analysis; assay type: ADME, organism-based; conditions: in vivo
# [11] = molecular target: T1, MAP kinase-activated protein kinase 2 (Homo sapiens, UniProt P49137); test: Inhibition of human MK2 using hsp27 peptide biotinyl-AYSRALSRQLSSGVSEIRCOOH as substrate after 45 mins by TR-FRET assay
# T1 sequence (P49137 whole entry): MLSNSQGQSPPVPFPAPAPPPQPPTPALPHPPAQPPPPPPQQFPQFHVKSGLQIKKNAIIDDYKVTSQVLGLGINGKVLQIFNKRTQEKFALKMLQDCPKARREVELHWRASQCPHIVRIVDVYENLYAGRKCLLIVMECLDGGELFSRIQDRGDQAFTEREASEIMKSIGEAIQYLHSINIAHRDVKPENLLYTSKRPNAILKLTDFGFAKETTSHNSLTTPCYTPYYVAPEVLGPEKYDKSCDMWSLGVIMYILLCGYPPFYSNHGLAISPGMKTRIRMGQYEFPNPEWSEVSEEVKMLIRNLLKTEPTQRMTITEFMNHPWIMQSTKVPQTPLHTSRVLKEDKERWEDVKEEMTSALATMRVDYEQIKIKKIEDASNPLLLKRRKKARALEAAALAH
# [12] = molecular target: T1, MAP kinase-activated protein kinase 2; test: Inhibition of MK2 in anisomycin-stimulated human THP1 cells assessed as reduction in hsp27 phosphorylation at Ser78 by FACS analysis
clearance [1],solubility [2],logD [3],IC50 (Blood),AUC/dose (Rattus norvegicus [4]),bioavailability [5],log(permeability) [6],F (Rattus norvegicus [7]),AUC/dose (Rattus norvegicus [8]),bioavailability [9],clearance [10],IC50 [11],IC50 [12],SMILES,IC50 (PBMC)
11 mL/min/kg,4 µg/mL,3.2,1650 nM,3486 nmol·h/L,81%,-4.1,–,–,–,–,–,–,CN1CC2(CNC(=O)c3c2[nH]c2c3CCc3cnc(-c4cccc(F)c4)c(F)c3-2)C1,550 nM
20 mL/min/kg,–,3.3,800 nM,1301 nmol·h/L,60%,-4.5,–,–,–,–,–,–,COc1ccc(-c2ncc3c(c2F)-c2[nH]c4c(c2CC3)C(=O)NCC42CN(C)C2)cc1F,240 nM
19 mL/min/kg,–,2.8,590 nM,1766 nmol·h/L,77%,-4.8,–,–,–,–,< 3 nM,480 nM,COc1ccc(-c2ncc3c(c2F)-c2[nH]c4c(c2CC3)C(=O)NCC42CN(C)C2)cn1,490 nM

# Further lines, the molecule ahead of its results:
SMILES,clearance [1],solubility [2],logD [3],IC50 (Blood),AUC/dose (Rattus norvegicus [4]),bioavailability [5],log(permeability) [6],F (Rattus norvegicus [7]),AUC/dose (Rattus norvegicus [8]),bioavailability [9],clearance [10],IC50 [11],IC50 [12],IC50 (PBMC)
CN1CC2(CNC(=O)c3c2[nH]c2c3CCc3cnc(-c4cccc(F)c4)cc3-2)C1,100 mL/min/kg,32 µg/mL,3.4,670 nM,121 nmol·h/L,27%,-5.2,–,–,–,–,–,–,–
CN1CC2(CNC(=O)c3c2[nH]c2c3CCc3cnc(-c4cccc(F)c4)nc3-2)C1,30 mL/min/kg,–,–,–,2154 nmol·h/L,–,-4.6,151%,–,–,–,–,–,–
CN1CC2(CNC(=O)c3c4c(n(C)c32)-c2cc(-c3cccc(Cl)c3)ncc2CC4)C1,–,–,3.7,–,–,–,-3.9,–,2415 nmol·h/L,53%,10 mL/min/kg,–,–,–
